Measurements published in BindingDB's records for doi:10.1021/jm0600390 (Mcgill University Health Center/Royal Victoria Hospital, 2006).

test: Inhibition of serum-stimulated proliferation of mouse ERBB2 transfected NIH3T3 cell line after 24 hrs

Row | SMILES | IC50
1 | Nc1ccc2ncnc(Nc3cccc(Br)c3)c2c1 | 670 nM
2 | Nc1ccc2ncnc(Nc3cccc(Cl)c3)c2c1 | 3290 nM
3 | O=NN(CCCl)C(=O)Nc1ccc2ncnc(Nc3cccc(Cl)c3)c2c1 [1-(2-Chloroethyl)-1-nitroso-3-{[4-(3-chlorophenyl)amino]quinazolin-6-yl}urea] | 5400 nM
4 | Cc1cccc(Nc2ncnc3ccc(NC(=O)N(CCCl)N=O)cc23)c1 [1-(2-Chloroethyl)-1-nitroso-3-{[4-(3-methylphenyl)amino]quinazolin-6-yl}urea] | 12200 nM
5 | CN(C(=O)N(CCCl)N=O)c1ccc2ncnc(Nc3cccc(Br)c3)c2c1 [1-(2-chloroethyl)-1-nitroso-3-methyl-3-{[4-(3-bromophenyl)amino]quinazolin-6-yl}urea] | 3060 nM
6 | CN(C(=O)N(CCCl)N=O)c1ccc2ncnc(Nc3cccc(Cl)c3)c2c1 [1-(2-chloroethyl)-1-nitroso-3-methyl-3-{[4-(3-chloro-phenyl)amino]quinazolin-6-yl}urea] | 680 nM
7 | Cc1cccc(Nc2ncnc3ccc(N(C)C(=O)N(CCCl)N=O)cc23)c1 [1-(2-chloroethyl)-1-nitroso-3-methyl-3-{[4-(3-methylphenyl)amino]quinazolin-6-yl}urea] | 6880 nM
8 | O=NN(CCCl)C(=O)Nc1ccc2ncnc(Nc3cccc(Br)c3)c2c1 [1-(2-chloroethyl)-1-nitroso-3-{[4-(3-bromophenyl)amino]quinazolin-6-yl}urea] | 1150 nM
9 | O=C(NCCCl)Nc1ccc2ncnc(Nc3cccc(Br)c3)c2c1 [1-(2-chloroethyl)-3-{[4-(3-bromophenyl)amino]quinazolin-6-yl}urea] | 1770 nM
10 | O=C(NCCCl)Nc1ccc2ncnc(Nc3cccc(Cl)c3)c2c1 [1-(2-chloroethyl)-3-{[4-(3-chlorophenyl)amino]quinazolin-6-yl}urea] | 1350 nM
11 | Cc1cccc(Nc2ncnc3ccc(NC(=O)NCCCl)cc23)c1 [1-(2-chloroethyl)-3-{[4-(3-methylphenyl)amino]quinazolin-6-yl}urea] | 2100 nM
12 | CNc1ccc2ncnc(Nc3cccc(Br)c3)c2c1 [4-N-(3-bromophenyl)-6-N-methylquinazoline-4,6-diamine] | 170 nM
13 | CNc1ccc2ncnc(Nc3cccc(Cl)c3)c2c1 [4-[(3-chlorophenyl)amino]-6-(methylamino)quinazoline] | 890 nM
14 | CNc1ccc2ncnc(Nc3cccc(C)c3)c2c1 [4-[(3-methylphenyl)amino]-6-(methylamino)quinazoline] | 2070 nM
15 | Cc1cccc(Nc2ncnc3ccc(N)cc23)c1 [N4-(3-methylphenyl)-4,6-quinazolinediamine] | 6390 nM
